Consider 6 molecules from paper PMC12589438 (Communications Chemistry, 2025).

Molecules are shown by their SMILES. Positions of bridges follow the written chain, without caps; N, C: chain ends. Non-standard residues stand in square brackets, D forms with d. Residues, ends and D or L forms follow the SMILES beside them. *: point of attachment. Benzoyl(4-F) = O=C(c1ccc(F)cc1)*; Mpa = O=C(O)CCS

Series [1] in a line: Stability test at different pH (buffered solutions). The conditions noted are these: buffer.
Description: (§3) Tested peptides were dissolved (1 mM) in 100 mM sodium citrate buffer (pH 3), 100 mM potassium phosphate buffer (pH 7), or 100 mM sodium carbonate buffer (pH 9).
For the next series, the target named is T1, human V1bR (Homo sapiens, UniProt P47901).
T1 construct: expressed in transfected cells; host or cells: COS-1
T1 sequence (P47901 1-424): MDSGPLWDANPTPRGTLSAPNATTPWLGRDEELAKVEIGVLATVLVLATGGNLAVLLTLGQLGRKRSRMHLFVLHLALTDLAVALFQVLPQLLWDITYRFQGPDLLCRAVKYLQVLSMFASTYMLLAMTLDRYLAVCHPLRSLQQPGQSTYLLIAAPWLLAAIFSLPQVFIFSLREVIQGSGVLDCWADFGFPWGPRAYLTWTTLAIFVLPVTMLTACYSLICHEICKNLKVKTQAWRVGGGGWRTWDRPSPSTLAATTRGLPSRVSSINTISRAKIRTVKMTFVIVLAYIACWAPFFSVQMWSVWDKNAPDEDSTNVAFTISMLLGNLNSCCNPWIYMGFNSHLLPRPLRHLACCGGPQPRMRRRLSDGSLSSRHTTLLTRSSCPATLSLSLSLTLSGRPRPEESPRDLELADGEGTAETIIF
The series can be described thus: FLIPR calcium mobilisation assay, hV1bR. To be noted: COS-1 cells transfected with hV1bR; n = 3, mean ± SEM. It counts as cell-based. Here is the method: (§1) OTR belongs to the rhodopsin-type (class I) G protein-coupled receptor (GPCR) family and is closely related to the vasopressin (VP) receptor (VPR) family (V1aR, V1bR, V2R). […] OTR, V1aR, and V1bR are expressed in the periphery and in CNS, while V2R is primarily expressed in the kidneys and was deemed not in scope for our exploration. The EC50 of our ligands was measured using a Fluorescent Imaging Plate Reader (FLIPR) calcium mobilisation assay (Fig. 2C)[34].
(§2) COS-1 cells were cultured in Dulbecco’s modified Eagle’s medium (DMEM) and 5% foetal bovine serum (FBS). […] Fluo-4-AM [4-(6-acetoxymethoxy-2,7-difluoro-3-oxo-9-xanthenyl)-4′-methyl-2,2′-(ethylenedioxy)dianilineN,N,N′,N′-tetraacetic acid tetrakis(acetoxymethyl) ester] ([…]) in PSS containing 0.3% fatty acid-free BSA was then added, and the cells incubated for 30 min at 37 °C. […] The baseline fluorescence was set to a minimum of 1000 arbitrary fluorescence units. The baseline fluorescence was read 10 times, followed by the addition of test compounds and fluorescence measurement every second for 180 s. The test compounds were added as an 8-point gradient in triplicate, with the highest concentration of 10 μM in PSS. To convert the raw fluorescence data to DF/F, the baseline fluorescence readings were subtracted from subsequent time points, and the resulting value was divided by the baseline fluorescence values.
(In general: Calcium assays in cells follow changes in intracellular calcium, usually with a dye or a luminescent sensor.)

A short description of a further series: in vitro. To be noted: rat, serum.
In a further series the target is T2, human V1aR (Homo sapiens, UniProt P37288).
T2 construct: expressed in transfected cells; host or cells: COS-1
T2 sequence (P37288 whole entry): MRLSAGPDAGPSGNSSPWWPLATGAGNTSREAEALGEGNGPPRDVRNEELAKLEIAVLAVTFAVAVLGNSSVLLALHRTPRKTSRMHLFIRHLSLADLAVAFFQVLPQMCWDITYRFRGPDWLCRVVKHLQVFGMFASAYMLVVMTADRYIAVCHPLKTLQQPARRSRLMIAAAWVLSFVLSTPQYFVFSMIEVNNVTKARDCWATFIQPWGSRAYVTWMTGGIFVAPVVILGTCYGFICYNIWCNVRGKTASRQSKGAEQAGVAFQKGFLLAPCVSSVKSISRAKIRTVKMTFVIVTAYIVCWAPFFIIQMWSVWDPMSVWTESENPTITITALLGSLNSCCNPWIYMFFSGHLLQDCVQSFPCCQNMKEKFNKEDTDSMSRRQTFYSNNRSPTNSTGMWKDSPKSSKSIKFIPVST
Briefly: FLIPR calcium mobilisation assay, hV1aR. To be noted: COS-1 cells transfected with hV1aR; n = 3, mean ± SEM. The class given is cell-based. The protocol: as §1
as §2, with “°C. The cells were then transferred to a” for “°C.”

The conditions of series [2]: pH 7.
Description: as §3
The next series has as its target T3, human OTR (Homo sapiens, UniProt P30559).
T3 construct: expressed in transfected cells; host or cells: COS-1
T3 sequence (P30559 1-389): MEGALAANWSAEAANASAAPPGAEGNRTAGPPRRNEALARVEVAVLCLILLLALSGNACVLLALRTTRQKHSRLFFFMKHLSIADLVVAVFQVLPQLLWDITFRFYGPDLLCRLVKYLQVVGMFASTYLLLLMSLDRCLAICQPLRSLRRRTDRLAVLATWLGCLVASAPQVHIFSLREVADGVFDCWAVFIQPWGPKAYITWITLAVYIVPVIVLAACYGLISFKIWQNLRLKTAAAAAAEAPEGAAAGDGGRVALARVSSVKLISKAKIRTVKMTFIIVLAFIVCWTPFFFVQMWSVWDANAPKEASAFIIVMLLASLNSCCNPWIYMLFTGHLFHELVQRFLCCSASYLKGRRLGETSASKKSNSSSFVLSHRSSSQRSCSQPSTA
Briefly: FLIPR calcium mobilisation assay, hOTR. It counts as cell-based. The conditions noted are these: for EC50: COS-1 cells transfected with hOTR, n = 3, mean ± SEM. Here is the method:
as §1, §2

The next series can be described thus: physchem. To be noted: buffer.
Series [3] is described as follows: Hydrophobicity assessment by analytical C18-RP-HPLC. The class given is physicochemical. To be noted: 0–40% B. The protocol:
To identify the most OT-like radiotracer, we first assessed the hydrophobicity of all compounds by comparing their retention times with OT on an analytical C18-RP-HPLC column (Fig. 2A).
Fig. 2 Pharmacological characterisation of OT analogues. […] B Metabolic stability of OT analogues in rat and human serum. Each time point was analysed in three independent experiments (n = 3 technical triplicates, mean ± SEM). C Potencies (EC50) values for OT and analogues at the human OTR, V1aR, and V1bR, determined by a FLIPR calcium mobilisation assay (n = 3 technical triplicates, mean ± SEM). […]; similar hydrophobicity with HPLC Rt ± 20% from OT; buffer t1/2 > 30 min at pH 7; […]; EC50 at OTR < 50 nM; EC50 at V1aR and V1bR < 5×EC50(OTR) (n.a.: not assessed).

The mark [4] stands for this setting: pH 3, t1/2 pH 3.0, 100 mM sodium citrate buffer pH 3, 10 h.
Where [5] appears, read: pH 7, t1/2 pH 7.0, 100 mM potassium phosphate buffer pH 7, 10 h.
Setting [6] is: pH 9, t1/2 pH 9.0, 100 mM sodium carbonate buffer pH 9, 10 h.

Description for in vitro: One hundred and fifty microliters of rat or human serum (Sigma Aldrich) was preheated at 37 °C for 30 min. 25 μL of the tested peptide sample (0.3 M in 0.1 M potassium phosphate buffer at pH 7.2) or 0.1 M potassium phosphate buffer pH 7.2 (for blank sample) were added to the serum and incubated at 37 °C. […] Sampled were centrifugated at 20,000 × g for 10 min, and the supernatant analysed via LC-MS (column: Agilent Technology, Zorbex C18, 2.1 × 100 mm, 5 μm, 300 Å. Elution method: 0–50% B in 50 min, 0.25 mL/min. Solvent A: 0.1% TFA in H2O. Solvent B: 0.1% TFA in ACN). Each peptide sample was analysed in three independent experiments, and data analysis was performed using Prism Version 7, a nonlinear fit one-phase decay model.
Description for physchem: as §3

What is called half-life is the time needed for the level to fall by half in the phase considered. Read a low half-life as rapid decline. Turning to `CC[C@H](C)[C@@H]1NC(=O)[C@H](Cc2ccc(O)cc2)NC(=O)CCSSC[C@@H](C(=O)N2CCC[C@H]2C(=O)N[C@@H](CCCCNCCS(=O)(=O)F)C(=O)NCC(N)=O)NC(=O)[C@H](CC(N)=O)NC(=O)[C@H](CCC(N)=O)NC1=O` [dOTK^8[ESF]], the half-life at 1 mM in series [1] (setting [4]), in series [1] (setting [5]) and in series [1] (setting [6]) was over 10 h throughout.
What is called EC50 is the midpoint of the concentration-response curve. For the molecule `CC[C@H](C)[C@@H]1NC(=O)[C@H](Cc2ccc(O)cc2)NC(=O)[C@@H](N)CSSC[C@@H](C(=O)N2CCC[C@H]2C(=O)N[C@@H](CCCCNC(=O)CON=C[C@H](F)[C@@H](O)[C@H](O)[C@H](O)CO)C(=O)NCC(N)=O)NC(=O)[C@H](CC(N)=O)NC(=O)[C@H](CCC(N)=O)NC1=O` [OTK^8[Aoa-FDG]], the EC50 on human V1bR worked out at 54 ± 31 nM; on human V1aR, 115 ± 81 nM; at human OTR, 5.25 ± 5.1 nM. This molecule showed a half-life at 0.043 M in “in vitro” of 13 ± 0.11 h. In series [2], the “degradation within 10 h” value came to 25%. For the same molecule, the “fold more potent than OT at OTR” value on human OTR (EC50 compared with OT) is listed as ~ 2 fold. Besides, the half-life at 1 mM in “physchem” (pH 3), in “physchem” (pH 7) and in “physchem” (pH 9) was over 10 h throughout.
As for `CC[C@H](C)[C@@H]1NC(=O)[C@H](Cc2ccc(O)cc2)NC(=O)[C@@H](N)CSSC[C@@H](C(=O)N2CCC[C@H]2C(=O)N[C@@H](CCCCNC(=O)CON=Cc2ccc(F)cc2)C(=O)NCC(N)=O)NC(=O)[C@H](CC(N)=O)NC(=O)[C@H](CCC(N)=O)NC1=O` [OTK^8[Aoa-FBA]], the results for the EC50 at human V1bR, at human V1aR and on human OTR were 354 ± 5.7 nM, 331.6 ± 0.4 nM and 42.1 ± 1.4 nM, respectively. In addition, in “in vitro”, the half-life at 0.043 M is 18 ± 0.04 h. Moreover, the “hydrophobicity compared with OT (retention on C18-RP-HPLC)” value in series [3] is reported as “significantly more hydrophobic”. Also, the “fold less potent than OT at OTR” value on human OTR (EC50 compared with OT) was ~ 4 fold. Also, the half-life at 1 mM in “physchem” (pH 3), in “physchem” (pH 7) and in “physchem” (pH 9) was over 10 h each time.
Regarding `CC[C@H](C)[C@@H]1NC(=O)[C@H](Cc2ccc(O)cc2)NC(=O)CCSSC[C@@H](C(=O)N2CCC[C@H]2C(=O)N[C@@H](CCCCNC(=O)c2ccc(F)cc2)C(=O)NCC(N)=O)NC(=O)[C@H](CC(N)=O)NC(=O)[C@H](CCC(N)=O)NC1=O` [dOTK^8[SFB]] ([Mpa]YIQNCPK(Benzoyl(4-F))G-NH2; disulfide 1-6), the results for the EC50 on human V1bR, at human V1aR and on human OTR were 46 ± 3.6 nM, 334.3 ± 0.6 nM and 46.8 ± 1.5 nM, respectively. The same molecule yielded a half-life at 0.043 M in the series “in vitro” of over 48 h. Also, in series [2], the “degradation within 10 h” value was determined as 25%. Further, the “fold less potent than OT at OTR” value on human OTR (EC50 compared with OT) is recorded as ~ 4 fold. Further, the half-life at 1 mM in the series “physchem” (pH 3), in “physchem” (pH 7) and in the series “physchem” (pH 9) was over 10 h each time.
As for `CC[C@H](C)[C@@H]1NC(=O)[C@H](Cc2ccc(O)cc2)NC(=O)CCSSC[C@@H](C(=O)N2CCC[C@H]2C(=O)N[C@@H](CCCCN(CCS(=O)(=O)F)CCS(=O)(=O)F)C(=O)NCC(N)=O)NC(=O)[C@H](CC(N)=O)NC(=O)[C@H](CCC(N)=O)NC1=O` [dOTK^8[ESF2]], the “hydrophobicity compared with OT (retention on C18-RP-HPLC)” value in series [3] is listed as “significantly more hydrophobic”. For the same molecule, the half-life at 1 mM in series [1] (setting [4]) was 3.6 h; in series [1] (pH 7, t1/2 at pH 7, pH 7, as stated in main text), under 0.5 h; in series [1] (setting [5]), under 1 h; in series [1] (pH 9, t1/2 at pH 9, pH 9, as stated in main text), under 0.5 h; in series [1] (setting [6]), under 1 h.
As to `CC[C@H](C)[C@@H]1NC(=O)[C@H](Cc2ccc(O)cc2)NC(=O)[C@@H](N)CSSC[C@@H](C(=O)N2CCC[C@H]2C(=O)N[C@@H](CC(C)C)C(=O)NCC(N)=O)NC(=O)[C@H](CC(N)=O)NC(=O)[C@H](CCC(N)=O)NC1=O` [OT, oxytocin, reference compound], in “in vitro”, the half-life at 0.043 M is 47 ± 0.05 h. Also, the half-life at 1 mM in the series “physchem” (pH 3), in “physchem” (pH 7) and in the series “physchem” (pH 9) was over 10 h in each case.
